Reference: patent US20220257725A1, “COMPOSITIONS AND METHODS FOR TREATING PEROXISOMAL BIOGENESIS DISORDERS” (University of Utah Research Foundation, priority 2019, published 2022)

B2: yeast Pex13-V5 (expressed by its endogenous promotor) (other, yeast (S. cerevisiae), UniProt P80667 1-386, looked up)
chain: MSSTAVPRPKPWETSASLEEPQRNAQSLSAMMTSNQQDSRPTEESNNSNSASESAPEVLPRPAALNSSGTYGESNTIPGIYGNSNYGIPYDNNPYSMNSIYGNSIGRYGYGGSYYGNNYGSFYGGGYGAGAGYGMNNGSGLGESTKATFQLIESLIGAVTGFAQMLESTYMATHNSFFTMISVAEQFGNLKEMLGSFFGIFAIMKFLKKILYRATKGRLGIPPKNFAESEGSKNKLIEDFQKFNDSGTINSNEKATRRKISWKPLLFFLMAVFGFPYLLNKFITKLQTSGTIRASQGNGSEPIDPSKLEFARALYDFVPENPEMEVALKKGDLMAILSKKDPLGRDSDWWKVRTKNGNIGYIPYNYIEIIKRRKKIEHVDDETRTH
notes: not shown: V5 tag

Legend:
[1] = tested on: PEX3− patient fibroblasts; experiment: Electron microscopy of mitochondrial morphology; assay type: cell-based, human
Protocol: Representative images of the most observed mitochondrial morphology are shown. […] OCR (pmol/min/norm.unit) for cWT (wild-type), cWT+ATAD1 (wild-type expressing ATAD1) PEX3− (patient), PEX3−+ATAD1 (PEX3− expressing ATAD1), cWT-ATAD1 (wildtype with ATAD1 deletion), PEX3−ATAD1 (patient with ATAD1 deletion) cells plotted against time (XF96e Extracellular Flux Analyzer, Mito-Stress-Test.) Oligomycin A (1 μM), 0.15 μM FCCP and 1 μM rotenone+1 μM antimycin A (final concentrations) were sequentially delivered to the XF96e assay medium through injection ports in the sensor cartridge. n=2 (4+4=8 technical replicates). […] Statistical significance (Welch's test), p values are indicated as: ns (not significant), * p≤0.05, ** p≤0.01, *** p≤0.001, **** p≤0.0001. […] Statistical significance (Welch's test), p values are indicated as: ns (not significant), * p≤0.05, ** p≤0.01, *** p≤0.001, **** p≤0.0001. FIG. 5E show a bar graph representation of calculated respiratory spare capacity (=uncoupled respiration minus basal respiration) of cWT (wild-type), cWT+ATAD1 (wild-type expressing ATAD1) PEX3− (patient), PEX3−+ATAD1 (PEX3− expressing ATAD1), cWT-ATAD1 (wildtype with ATAD1 deletion), PEX3−ATAD1 (patient with ATAD1 deletion). Statistical significance (Welch's test), p values are indicated as: ns (not significant), * p≤0.05, ** p≤0.01, *** p≤0.001, **** p≤0.0001. […]

[2] = tested on: PEX3− patient fibroblasts; experiment: Seahorse XF 96e Flux analyzer respiration (Mito-Stress-Test); assay type: cell-based, human
Protocol: (§1) Representative images of the most observed mitochondrial morphology are shown. […] OCR (pmol/min/norm.unit) for cWT (wild-type), cWT+ATAD1 (wild-type expressing ATAD1) PEX3− (patient), PEX3−+ATAD1 (PEX3− expressing ATAD1), cWT-ATAD1 (wildtype with ATAD1 deletion), PEX3−ATAD1 (patient with ATAD1 deletion) cells plotted against time (XF96e Extracellular Flux Analyzer, Mito-Stress-Test.) Oligomycin A (1 μM), 0.15 μM FCCP and 1 μM rotenone+1 μM antimycin A (final concentrations) were sequentially delivered to the XF96e assay medium through injection ports in the sensor cartridge. n=2 (4+4=8 technical replicates). […] Statistical significance (Welch's test), p values are indicated as: ns (not significant), * p≤0.05, ** p≤0.01, *** p≤0.001, **** p≤0.0001. […] Statistical significance (Welch's test), p values are indicated as: ns (not significant), * p≤0.05, ** p≤0.01, *** p≤0.001, **** p≤0.0001. FIG. 5E show a bar graph representation of calculated respiratory spare capacity (=uncoupled respiration minus basal respiration) of cWT (wild-type), cWT+ATAD1 (wild-type expressing ATAD1) PEX3− (patient), PEX3−+ATAD1 (PEX3− expressing ATAD1), cWT-ATAD1 (wildtype with ATAD1 deletion), PEX3−ATAD1 (patient with ATAD1 deletion). Statistical significance (Welch's test), p values are indicated as: ns (not significant), * p≤0.05, ** p≤0.01, *** p≤0.001, **** p≤0.0001.
Therefore, it was tested whether removal of the accumulated peroxins is able to restore mitochondrial respiration. To test the direct dependence of this phenotype with the expression levels of ATAD1, additional cell lines with genetic deletion of ATAD1 was generated. A Seahorse XF 96e Flux analyzer was used to measure respiration (FIG. 5B). A significant lower basal rate of respiration in the PEX3^− cell line was observed compared to the complemented wild-type cWT (FIGS. 5B, 5C). […] In the case that the expression level of ATAD1 is sufficient to cause the phenotype, it would be expected that a much more severe phenotype in the patient with an additional ATAD1 deletion. […]

[3] = tested on: PEX3 deficient (PEX3−) fibroblast cell line derived from a patient with Zellweger Syndrome; experiment: Live cell fluorescent imaging of peroxin-GFP localization with ATAD1 overexpression; assay type: cell-based, human
[4] = tested on: PEX3− patient fibroblasts; experiment: Unbiased whole cell lipidomics; assay type: cell-based, human; conditions: patient cell line with overexpression of ATAD1
Protocol: as §1
To complement the characterization with other readouts relevant to reflect important mitochondrial function, unbiased whole cell lipidomics was performed. […] Another readout of flourishing mitochondrial metabolism is the capacity of mitochondria to import […] phosphatidylserines (PSs) into phosphatidylethanolamines (PEs). […] The class of phospho-ether lipids (plasmalogens), precursors to myelin, seems to be unaffected (FIG. 5H).

[5] = target: B2; experiment: BN-PAGE of digitonin-solubilised yeast mitochondrial membranes with complexome profiling (co-migration)
Protocol: Gel was transferred to PVDF membrane and immunoblotted for PEX13^V5 (V5). […] Left panel represents the protein abundance in the wild-type, middle panel in pex19Δ and the right panel in pex19Δmsp1Δ.
Some peroxisomal matrix proteins were detected that have never been reported to be localized to the mitochondria before (FIG. 2 and FIG. 3A (summary cartoon)). Therefore, it was tested whether the enrichment of peroxins on mitochondria is a random accumulation or a structured event.

[6] = target: T1, yeast Pex25 (yeast (S. cerevisiae), UniProt Q02969 1-394); experiment: BN-PAGE of digitonin-solubilised yeast mitochondrial membranes with complexome profiling (co-migration in a 150-180 kDa subcomplex)
T1 sequence (looked up): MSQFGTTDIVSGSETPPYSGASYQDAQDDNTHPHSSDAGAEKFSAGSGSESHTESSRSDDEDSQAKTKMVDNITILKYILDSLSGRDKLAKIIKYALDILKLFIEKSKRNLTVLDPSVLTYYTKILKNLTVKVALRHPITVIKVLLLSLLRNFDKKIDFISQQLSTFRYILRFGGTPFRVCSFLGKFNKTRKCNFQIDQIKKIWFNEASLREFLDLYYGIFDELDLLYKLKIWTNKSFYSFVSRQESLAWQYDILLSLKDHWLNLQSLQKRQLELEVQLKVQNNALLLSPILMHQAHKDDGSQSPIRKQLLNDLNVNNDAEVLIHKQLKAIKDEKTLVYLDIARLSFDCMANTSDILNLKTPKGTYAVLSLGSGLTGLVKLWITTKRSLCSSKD

[7] = target: B2; experiment: as above

**Q.** With “ATAD1: human AAA-ATPase acting in mitochondrial protein quality control; overexpressed in patient fibroblasts” as the molecule, how does the “Share accounted as type 3 (mitochondria with fewer cristae)” value ([1]; PEX3−ATAD+ cells, patient >80% type 2, wild-type about 80% types 1 and 3) read?
**A.** The value was “about 70%”.

**Q.** And the “Mitochondrial morphology (electron density, cristae)” value ([1]; patient cell line overexpressing ATAD1, electron microscopy)?
**A.** Its value is “electron density recovers and cristae formation is partially detected”.

**Q.** And the “Mitochondrial spare capacity (uncoupled minus basal respiration)” value ([2]; PEX3−ATAD+)?
**A.** The value was “recovered the mitochondrial spare capacity”.

**Q.** And the Uncoupled respiration ([2]; PEX3−ATAD+ versus cWT, FCCP 0.15 μM)?
**A.** The Uncoupled respiration was “normalized to wild-type respiration”.

**Q.** What about the Basal mitochondrial respiration ([2]; PEX3−ATAD+ versus cWT, OCR) of the same molecule?
**A.** Its Basal mitochondrial respiration is “restored back to wild-type level”.

**Q.** And the PEX13-GFP localization ([3]; PEX3−ATAD+ cells (ATAD1 overexpressed), Mitotracker far red counterstain)?
**A.** Its PEX13-GFP localization is “not stabilized in the mitochondrial outer membrane”.

**Q.** What about the PEX12-GFP distribution ([3]; PEX12-GFP transiently expressed, ATAD1 overexpressing patient cell line, compared with PEX13-GFP result) of the same molecule?
**A.** The PEX12-GFP distribution was “very similar distribution with a slightly milder effect”.

**Q.** And the Cardiolipin levels [4]?
**A.** The Cardiolipin levels was “normalizes to wild-type levels”.

**Q.** And the “Phosphatidylethanolamine (PE) levels” value [4]?
**A.** The value was “slightly higher values than in wild-type”.

**Q.** What about the “Phospho-ether lipids (plasmalogens)” value [4] of the same molecule?
**A.** The value was “unaffected”.

B1: yeast Pex14 (other, yeast (S. cerevisiae), UniProt P53112 2-341, looked up)
chain: SDVVSKDRKALFDSAVSFLKDESIKDAPLLKKIEFLKSKGLTEKEIEIAMKEPKKDGIVGDEVSKKIGSTENRASQDMYLYEAMPPTLPHRDWKDYFVMATATAGLLYGAYEVTRRYVIPNILPEAKSKLEGDKKEIDDQFSKIDTVLNAIEAEQAEFRKKESETLKELSDTIAELKQALVQTTRSREKIEDEFRIVKLEVVNMQNTIDKFVSDNDGMQELNNIQKEMESLKSLMNNRMESGNAQDNRLFSISPNGIPGIDTIPSASEILAKMGMQEESDKEKENGSDANKDDNAVPAWKKAREQTIDSNASIPEWQKNTAANEISVPDWQNGQVEDSIP
**Q.** Does B1 bind [5]?
**A.** Result: binds

**Q.** Does B2 bind [6]?
**A.** Result: binds

B3: yeast Pex11 (other, yeast (S. cerevisiae), UniProt Q12462 2-236, looked up)
chain: VCDTLVYHPSVTRFVKFLDGSAGREKVLRLLQYLARFLAVQNSSLLARQLQAQFTTVRKFLRFLKPLNHLQAAAKFYDNKLASDNVVRVCNVLKNIFFAAYLSLDQVNLLRILKVIPVTVLTGKKIPRWSNWCWLFGLLSGLAMDLRKIQTSHAQIAAFVKAKSQSQGDEHEDHKKVLGKAYQDRYTALRRLFWDAADSFIVLNNLGYLSSNEEYVALSGVVTSILGMQDMWKAT
**Q.** Does B3 bind [7]?
**A.** Result: binds
